Source: the NIST ThermoML archive (doi:10.1016/j.jct.2006.07.021)

Test: xn = mol fraction of the nth substance listed
Details: 101 kPa, Liquid, Pycnometric method

NC=O [formamide] + OCCO
mass density [kg/m3]
Details | 293.15 K | 298.15 K | 303.15 K | 308.15 K | 313.15 K | 318.15 K
x1 = 0.0612 | 1114.13 | 1110.54 | 1106.94 | 1103.38 | 1099.81 | 1096.21
x1 = 0.1204 | 1114.54 | 1110.93 | 1107.31 | 1103.66 | 1100.06 | 1096.44
x1 = 0.1859 | 1115.04 | 1111.39 | 1107.74 | 1104.07 | 1100.42 | 1096.73
x1 = 0.2524 | 1115.55 | 1111.84 | 1108.13 | 1104.47 | 1100.77 | 1097.09
x1 = 0.3302 | 1116.11 | 1112.36 | 1108.66 | 1104.92 | 1101.18 | 1097.46
x1 = 0.3926 | 1116.61 | 1112.86 | 1109.1 | 1105.36 | 1101.62 | 1097.88
x1 = 0.4517 | 1117.2 | 1113.44 | 1109.64 | 1105.85 | 1102.08 | 1098.29
x1 = 0.5102 | 1117.85 | 1114.01 | 1110.17 | 1106.38 | 1102.55 | 1098.74
x1 = 0.5643 | 1118.48 | 1114.66 | 1110.81 | 1106.95 | 1103.13 | 1099.29
x1 = 0.6101 | 1119.18 | 1115.31 | 1111.46 | 1107.6 | 1103.72 | 1099.89
x1 = 0.6596 | 1120.09 | 1116.22 | 1112.36 | 1108.46 | 1104.59 | 1100.7
x1 = 0.7454 | 1122.11 | 1118.19 | 1114.23 | 1110.28 | 1106.35 | 1102.42
x1 = 0.8195 | 1124.35 | 1120.37 | 1116.38 | 1112.38 | 1108.42 | 1104.46
x1 = 0.8883 | 1127.02 | 1122.99 | 1119 | 1115.01 | 1110.98 | 1106.96
x1 = 0.9491 | 1130.03 | 1125.99 | 1121.95 | 1117.89 | 1113.86 | 1109.79
x1 = 1 | 1133 | 1129 | 1125 | 1121 | 1117 | 1113

CCO [ethanol] + NC=O
x2 = 0
Details | mass density [kg/m3]
293.15 K | 789.46
298.15 K | 785.2
303.15 K | 780.75
308.15 K | 776.42
313.15 K | 771.81
318.15 K | 767.38

CC(O)CO (stereo not drawn) [1,2-propanediol] + NC=O
x2 = 0
Details | mass density [kg/m3]
293.15 K | 1036.38
298.15 K | 1032.76
303.15 K | 1029.14
308.15 K | 1025.52
313.15 K | 1021.9
318.15 K | 1018.28
